Measured values reported in patent US10676534B2, “Vaults engineered for hydrophobic drug delivery” (priority 2013, dated 2020).
≈ marks a conversion by molar mass, not a printed value.

Columns and labels:
[1] = cited from earlier work
J-Lat 10.6 cells = experiment: In vitro latent HIV activation, J-Lat 10.6 cell line assay (GFP expression); format: cell-based; conditions: 50 nM, without vaults, positive control, 48 hrs, N=3, ±1 SD
Protocol: (§1) FIGS. 10A, 10B, and 10C: FIG. 10A) In vitro latent HIV activation using bryostatin 1 sequestered in AH1 vault complexes compared to empty vault complexes on J-Lat 10.6 cells for 48 hrs. In these assays 50 nM of byrostatin 1 (without vaults) was used as a positive control and induced GFP expression in 30.6% (±0.6%) of cells. Error bars indicate ±1 SD (N=3). NS not significant, **p<0.0001 empty vault vs. Vault+Byrostatin 1 (2-sided t-test). FIG. 10B) In vitro stimulation of CD69 HIV provirus latency activation biomarker using bryostatin 1 sequestered in AH1 vault complexes compared to empty vault complexes on primary human PBMCs for 24 hrs. Positive control stimulations with 50 nM of byrostatin 1 compound (without vaults) induced CD69 expression in 69.4% (±31.3%) of cells. Error bars indicate ±1 SD (N=4 different cell donors). […]
(§2) Bryostatin 1 is an effective HIV therapeutic as it activates latent HIV provirus that remains within cellular reservoirs. […] The bryostatin 1 sequestered within AH1 vault complex (bryostatin/AH1) was assessed in vitro and in vivo for the ability to activate latent HIV provirus. […] When tested for activity in this way, bryostatin/AH1 activated CD69 expression in primary human PBMC obtained from 4 different donors in a dose dependent manner with stimulation occurring at concentrations as low as 0.1 ng/μL AH1 vault complex as analyzed by flow cytometry (FIG. 10B).

primary human PBMCs = experiment: In vitro stimulation of CD69 HIV provirus latency activation biomarker, flow cytometry; format: cell-based; conditions: 50 nM, without vaults, positive control, 24 hrs, N=4 donors, ±1 SD
Protocol: as §1, §2

SMILES: CC1=C(/C=C/C(C)=C/C=C/C(C)=C/C(=O)O)C(C)(C)CCC1 [ATRA, All-trans Retinoic Acid]
- aqueous solubility (in words) [1]: aqueous insoluble

SMILES: CCC/C=C/C=C/C(=O)O[C@H]1/C(=C/C(=O)OC)C[C@H]2C[C@H]([C@@H](C)O)OC(=O)C[C@H](O)C[C@@H]3C[C@H](OC(C)=O)C(C)(C)[C@](O)(C[C@@H]4C/C(=C/C(=O)OC)C[C@H](/C=C/C(C)(C)[C@]1(O)O2)O4)O3 [Bryostatin 1]
- cells with induced GFP expression (J-Lat 10.6 cells): 30.6%
- cells with induced CD69 expression (primary human PBMCs): 69.4%

SMILES: NC(=O)c1[nH]c2ccc(Cl)cc2c1S(=O)(=O)c1ccccc1 [CSIS, 5-chloro-3-phenylsulfonylindole-2-carboxamide]
- solubility in water [1]: 1.4 µg/mL (≈ 4.18 µM)

SMILES: COc1cccc2c1C(=O)c1c(O)c3c(c(O)c1C2=O)C[C@@](O)(C(=O)CO)C[C@@H]3O[C@H]1C[C@H](N)[C@H](O)[C@H](C)O1 [Doxorubicin]
- solubility in water [1]: over 50 mg/mL
